Experiments:
[1] = target: T1, SARS-CoV-2 PLpro (Severe acute respiratory syndrome coronavirus 2, UniProt P0DTD1); assay: IC50 inhibitory assay, fluorogenic substrate cleavage by PLpro; format: biochemical; conditions: SARS-CoV-2 PLpro 0.1 μM; substrate 10 μM; pH 8.1; 37 °C; 10 min preincubation
T1 construct: The papain-like protease domain (PLpro) of SARS-CoV-2 (SCoV2)
Method: The inhibitory activities of compounds against SARS-CoV-2 PLpro were determined in a reaction buffer containing 20 mM HEPES, 40 mM NaCl, 5% glycerol, 2 mM DTT (freshly added before the measurements), pH 8.1, at 37 °C. A fluorescent substrate of SARS-CoV-2 PLpro (Z-Arg-leu-Arg-Gly-Gly-[…]AMC; Biosyntan, Berlin) was used, and the fluorescence signal of the cleaved substrate was monitored using a Tecan Spark® fluorescence spectrophotometer at an […] wavelength of 460/360 nm. SARS-CoV-2 PLpro (10 μL per well) was pipetted into a 96-well plate together with reaction buffer reaction buffer (50 μL per well, final enzyme concentration: 0.1 μM). Compounds (10 μL per well) were added at varying concentrations, and plates incubated at 37 °C for 10 mins. Finally, the reaction was initiated by adding 30 μL of the substrate (final concentration: 10 μM) dissolved in the reaction buffer.
FIG. 1: PROTAC and parent ligand for SARS-CoV-2 PLpro in a binary IC50 experiment. C10778A PROTAC (top left), comprising a SARS-CoV-2 PLpro targeting ligand C10778B (bottom left) connected to thalidomide via a C3 alkyl linker. IC50 values have been determined in an in vitro inhibitory binding assay whereby the fluorescence signal resulting from cleavage of a fluorogenic substrate by PLpro is measured. Inhibition of PLpro is associated with reduced cleavage of the fluorogenic substrate. […] Assay conditions: experiments were performed in 20 mM HEPES buffer containing 40 mM NaCl 5% glycerol, 2 mM DTT at pH 8.1. A fluorogenic substrate for PLpro (Z-Arg-leu-Arg-Gly-Gly-AMC) was used to determine the inhibition rate of compounds. Final DMSO concentration in each reaction was 1%. Measurements were performed in triplicate.

[2] = system: SARS-CoV-2; assay: Antiviral assay in infected Vero E6 cells (ATP quantification, Cell Titer Glo); conditions: Severe acute respiratory syndrome coronavirus 2, Vero C1008, 72 h; for inhibition at 10 µM: read-out: Antiviral Activity, 10 uM (cell viability assay), 10 uM; for inhibition at 10 µM / inhibition at 50 µM: Vero E6 cells, MOI 0.05, 72 h; for inhibition at 50 µM: read-out: Antiviral Activity, 50 uM (cell viability assay), 50 uM
Method: Vero E6 cells (2×10^4/well) were seeded in 96 well plates one day before the experiment. Pre-treatment, the medium was removed and compounds were added at concentrations varying from 0.1-100 μM. After 24 h incubation, the medium was removed and cells were infected with MOI 0.05 SARS-CoV-2 SARS-CoV2/ZG/297-20. After 1 h infection, the viruses were removed and the same concentration of compounds were added back into the cells. After 72 h incubation at 37 °C, EC50 measurements were made using ATP quantification (Cell Titer Glo).

[3] = system: SARS-CoV-2; assay: Plaque reduction assay in Vero E6 cells; format: cell-based; conditions: MOI 0.1

| Structure (SMILES) | IC50 [1] | inhibition at 10 µM [2] | inhibition at 50 µM [2] | EC50 [2] | plaque reduction (viable virus, in words) [3] |
| --- | --- | --- | --- | --- | --- |
| C[C@H](c1cccc2ccccc12)N1CCC(C(=O)NCc2cc(F)cc(NC(=O)N3CCN(CCCCCCOc4cccc5c4C(=O)N(C4CCC(=O)NC4=O)C5=O)CC3)c2)CC1 (some centres unmarked) [TS444] | < 10 µM | < 25% | < 25% | – | – |
| C[C@H](c1cccc2ccccc12)N1CCC(C(=O)NCc2cc(F)cc(NC(=O)N3CCN(CCOc4cccc5c4C(=O)N(C4CCC(=O)NC4=O)C5=O)CC3)c2)CC1 (some centres unmarked) [TS445] | < 1 µM | < 25% | < 25% | – | – |
| C[C@H](c1cccc2ccccc12)N1CCC(C(=O)NCc2cc(F)cc(NC(=O)N3CCN(CCCCCCCCOc4cccc5c4C(=O)N(C4CCC(=O)NC4=O)C5=O)CC3)c2)CC1 (some centres unmarked) [TS446] | > 25 µM | < 50% | > 75% | – | – |
| C[C@H](c1cccc2ccccc12)N1CCC(C(=O)NCc2cc(F)cc(NC(=O)N3CCN(CCCCOc4cccc5c4C(=O)N(C4CCC(=O)NC4=O)C5=O)CC3)c2)CC1 (some centres unmarked) [TS452] | < 10 µM | < 0% | < 0% | – | – |
| C[C@H](c1cccc2ccccc12)N1CCC(C(=O)NCc2cc(F)cc(NC(=O)N3CCN(CCOc4ccc5c(c4)C(=O)N(C4CCC(=O)NC4=O)C5=O)CC3)c2)CC1 (some centres unmarked) [TS499] | < 1 µM | < 25% | < 25% | – | – |
| C[C@H](c1cccc2ccccc12)N1CCC(C(=O)NCc2cc(F)cc(NC(=O)N3CCN(CCCCCCCCOc4ccc5c(c4)C(=O)N(C4CCC(=O)NC4=O)C5=O)CC3)c2)CC1 (some centres unmarked) [TS516] | 10 to 25 µM | < 50% | > 75% | 4.4 µM | efficiently reduces viable virus |
| C[C@H](c1cccc2ccccc12)N1CCC(C(=O)NCc2cc(F)cc(NC(=O)N3CCN(CCNC(=O)COc4ccc(C5CCC(=O)NC5=O)cc4)CC3)c2)CC1 (some centres unmarked) [TS519] | < 10 µM | < 25% | < 25% | – | – |
| C[C@H](c1cccc2ccccc12)N1CCC(C(=O)NCc2cc(F)cc(NC(=O)N3CCN(CCCCNC(=O)COc4ccc(C5CCC(=O)NC5=O)cc4)CC3)c2)CC1 (some centres unmarked) [TS526] | < 10 µM | < 0% | < 25% | – | – |
| C[C@H](c1cccc2ccccc12)N1CCC(C(=O)NCc2cc(F)cc(NC(=O)N3CCN(CCCCCCNC(=O)COc4ccc(C5CCC(=O)NC5=O)cc4)CC3)c2)CC1 (some centres unmarked) [TS529] | < 10 µM | < 75% | < 75% | – | – |
| C[C@H](c1cccc2ccccc12)N1CCC(C(=O)NCc2cc(F)cc(NC(=O)N3CCN(CCCCOc4ccc5c(c4)C(=O)N(C4CCC(=O)NC4=O)C5=O)CC3)c2)CC1 (some centres unmarked) [TS530] | < 10 µM | < 25% | < 75% | – | – |
| C[C@H](c1cccc2ccccc12)N1CCC(C(=O)NCc2cc(F)cc(NC(=O)N3CCN(CCCCCCOc4ccc5c(c4)C(=O)N(C4CCC(=O)NC4=O)C5=O)CC3)c2)CC1 (some centres unmarked) [TS534] | < 10 µM | < 25% | > 75% | – | – |
| C[C@H](c1cccc2ccccc12)N1CCC(C(=O)NCc2cc(F)cc(NC(=O)N3CCN(CC4CCN(c5ccc6c(c5)C(=O)N(C5CCC(=O)NC5=O)C6=O)CC4)CC3)c2)CC1 (some centres unmarked) [TS535] | 10 to 25 µM | < 25% | < 75% | – | – |
| C[C@H](c1cccc2ccccc12)N1CCC(C(=O)NCc2cc(F)cc(NC(=O)N3CCN(CCCCC(=O)N4CCN(c5ccc(C6CCC(=O)NC6=O)cc5)CC4)CC3)c2)CC1 (some centres unmarked) [TS551] | < 10 µM | < 25% | < 50% | – | – |
| C[C@H](c1cccc2ccccc12)N1CCC(C(=O)NCc2cc(F)cc(NC(=O)N3CCN(CCCCC(=O)N4CCN(c5ccc(N6CCC(=O)NC6=O)cc5)CC4)CC3)c2)CC1 [TS553] | < 10 µM | < 25% | < 25% | – | – |
| C[C@H](c1cccc2ccccc12)N1CCC(C(=O)NCc2cc(F)cc(NC(=O)N3CCN(CCCCNC(=O)COc4ccc(N5CCC(=O)NC5=O)cc4)CC3)c2)CC1 [TS557] | < 10 µM | < 0% | < 0% | – | – |
| Cc1ncsc1-c1ccc(CNC(=O)[C@@H]2C[C@@H](O)CN2C(=O)[C@@H](NC(=O)CCCCN2CCN(C(=O)Nc3cc(F)cc(CNC(=O)C4CCN([C@H](C)c5cccc6ccccc56)CC4)c3)CC2)C(C)(C)C)cc1 [TS558] | < 10 µM | < 0% | < 0% | – | – |
| Cc1ccc(C(=O)NCCCCN2CCN(C(=O)Nc3cc(F)cc(CNC(=O)C4CCN([C@H](C)c5cccc6ccccc56)CC4)c3)CC2)cc1N1CCC(=O)NC1=O [TS567] | < 10 µM | < 0% | < 0% | – | – |
| C[C@H](c1cccc2ccccc12)N1CCC(C(=O)NCc2cc(F)cc(NC(=O)N3CCN(CCOCCOCCC(=O)N4CCN(c5ccc(C6CCC(=O)NC6=O)cc5)CC4)CC3)c2)CC1 (some centres unmarked) [TS568] | < 10 µM | < 25% | < 75% | – | – |
| C[C@H](c1cccc2ccccc12)N1CCC(C(=O)NCc2cc(F)cc(NC(=O)N3CCN(CCOCCOCCC(=O)N4CCN(c5ccc(N6CCC(=O)NC6=O)cc5)CC4)CC3)c2)CC1 [TS569] | < 10 µM | < 0% | < 25% | – | – |
